Assay results as given in US20250388544A1, “HETEROAROMATIC INHIBITORS OF ASTACIN PROTEINASES” (VIVORYON THERAPEUTICS N.V., priority 2019, published 2025).

What was measured:
Format in all cases: biochemical
[1] = molecular target: T1, hMMP 13 (Homo sapiens, UniProt P45452); assay: Residual enzyme activity of other metalloproteases; conditions: read-out: Residual enzyme activity MMP13; for remaining activity at 10 µM: 10 μM inhibitor; for remaining activity at 200 µM: 200 μM inhibitor
T1 construct: purchased R&D systems
Protocol: (§1) A typical assay of 250 μl total volume measured in black 96 well plates consisted of 100 μl buffer, 50 μl enzyme at a final concentration of 5e-8 M to 2e-10 M, 50 μl substrate (0.15 to 80 μM, in buffer, 0.5% DMSO) and 50 μl inhibitor solution (in buffer, 1% DMSO). In case of 125 μl assay volume (black 96 half area well plates) all volumes were cut in half. Enzymatic activity of ADAMs was measured in 384 well plates with 60 μl total assay volume consisting of 20 μl inhibitor, 20 μl buffer, 10 μl enzyme and 10 μl substrate.
(§2) MMPs were activated prior to measurement by APMA (p-aminophenylmercuric acetate) treatment according to manufacturer's instructions (R&D systems).

[2] = molecular target: T2, hMMP 2 (Homo sapiens, UniProt P08253); assay: Residual enzyme activity of other metalloproteases; conditions: read-out: Residual enzyme activity MMP2; for remaining activity at 10 µM: 10 μM inhibitor; for remaining activity at 200 µM: 200 μM inhibitor
T2 construct: purchased Abnova
T2 sequence (P08253 110-660): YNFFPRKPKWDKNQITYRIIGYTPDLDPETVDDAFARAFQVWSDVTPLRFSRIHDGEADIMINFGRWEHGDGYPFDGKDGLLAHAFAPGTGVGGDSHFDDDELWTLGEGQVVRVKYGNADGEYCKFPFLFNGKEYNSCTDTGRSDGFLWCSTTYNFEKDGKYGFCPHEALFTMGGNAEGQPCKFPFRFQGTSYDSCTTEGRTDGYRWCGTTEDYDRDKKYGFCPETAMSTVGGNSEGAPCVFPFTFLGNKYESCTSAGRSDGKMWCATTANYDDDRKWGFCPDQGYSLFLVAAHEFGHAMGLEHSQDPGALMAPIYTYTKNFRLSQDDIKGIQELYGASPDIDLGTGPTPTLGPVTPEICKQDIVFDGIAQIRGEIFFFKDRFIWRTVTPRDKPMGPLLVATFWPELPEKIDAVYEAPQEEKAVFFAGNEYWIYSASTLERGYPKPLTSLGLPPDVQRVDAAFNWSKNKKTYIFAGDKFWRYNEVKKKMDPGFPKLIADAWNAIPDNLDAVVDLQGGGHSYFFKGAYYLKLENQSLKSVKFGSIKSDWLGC
Protocol: as §1, §2

[3] = molecular target: T3, hMeprin α (Homo sapiens, UniProt Q16819); assay: Enzymatic assay, quenched peptide substrate cleavage, method A; conditions: geometric mean (geometric SD factor in parentheses), read-out: Meprin alpha IC50
T3 sequence (Q16819 66-746): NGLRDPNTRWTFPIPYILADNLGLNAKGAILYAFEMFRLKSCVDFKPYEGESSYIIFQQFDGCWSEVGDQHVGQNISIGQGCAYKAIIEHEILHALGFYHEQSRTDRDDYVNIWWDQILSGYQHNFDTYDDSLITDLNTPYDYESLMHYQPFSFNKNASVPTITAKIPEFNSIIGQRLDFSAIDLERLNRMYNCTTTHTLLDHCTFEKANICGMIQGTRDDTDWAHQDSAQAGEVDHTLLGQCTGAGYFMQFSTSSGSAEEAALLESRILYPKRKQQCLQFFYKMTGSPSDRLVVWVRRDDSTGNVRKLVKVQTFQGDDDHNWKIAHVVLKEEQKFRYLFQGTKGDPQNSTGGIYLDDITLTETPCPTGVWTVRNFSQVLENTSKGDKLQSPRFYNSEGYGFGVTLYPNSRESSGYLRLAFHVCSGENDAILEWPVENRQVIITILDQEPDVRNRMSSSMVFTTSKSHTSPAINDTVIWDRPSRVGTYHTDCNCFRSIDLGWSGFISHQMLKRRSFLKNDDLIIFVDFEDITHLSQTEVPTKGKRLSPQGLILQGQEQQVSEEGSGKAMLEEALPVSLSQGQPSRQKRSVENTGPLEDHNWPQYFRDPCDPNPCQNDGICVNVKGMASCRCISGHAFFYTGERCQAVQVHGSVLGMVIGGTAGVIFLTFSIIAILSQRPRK
Protocol: as §1, with “The determination of enzymatic activity was based on the cleavage of internally quenched peptide substrates. A typical” for “A typical”
(§3) Based on method B Ki^(app) values were determined using Morrison's equation. All measurements were performed using a fluorescence plate reader (FLUOSTAR OPTIMA, BMG Labtech) at 30° C. The kinetic parameters were determined at least in duplicates on separate days. The excitation/emission wavelength was 340/420 nm. The kinetic data was evaluated using GRAFIT software (version 7.0.3, Erithacus Software).

[4] = molecular target: T4, hMeprin β (Homo sapiens, UniProt Q16820); assay: as above; conditions: geometric mean (geometric SD factor in parentheses), read-out: Meprin beta IC50
T4 sequence (Q16820 62-701): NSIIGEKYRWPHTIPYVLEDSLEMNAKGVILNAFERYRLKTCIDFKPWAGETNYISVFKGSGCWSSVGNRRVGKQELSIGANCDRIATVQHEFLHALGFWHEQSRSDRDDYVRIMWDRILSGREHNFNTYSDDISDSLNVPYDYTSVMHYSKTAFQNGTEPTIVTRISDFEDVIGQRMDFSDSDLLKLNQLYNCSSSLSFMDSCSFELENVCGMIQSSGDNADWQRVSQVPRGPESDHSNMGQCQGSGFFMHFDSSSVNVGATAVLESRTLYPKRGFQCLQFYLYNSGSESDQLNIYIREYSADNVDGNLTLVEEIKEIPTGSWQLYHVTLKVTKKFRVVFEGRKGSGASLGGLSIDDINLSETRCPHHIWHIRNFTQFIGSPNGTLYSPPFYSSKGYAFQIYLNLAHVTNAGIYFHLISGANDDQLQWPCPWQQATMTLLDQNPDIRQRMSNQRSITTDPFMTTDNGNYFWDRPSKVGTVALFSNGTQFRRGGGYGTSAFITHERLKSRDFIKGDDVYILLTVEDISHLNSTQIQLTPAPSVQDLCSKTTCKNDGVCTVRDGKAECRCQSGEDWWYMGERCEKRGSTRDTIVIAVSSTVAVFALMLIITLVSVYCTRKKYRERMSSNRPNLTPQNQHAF
Protocol: as §1, with “The determination of enzymatic activity was based on the cleavage of internally quenched peptide substrates. A typical” for “A typical”
as §3

| remaining activity at 10 µM [1] [%] | remaining activity at 200 µM [1] [%] | remaining activity at 10 µM [2] [%] | remaining activity at 200 µM [2] [%] | IC50 [3] [µM] | IC50 [4] [µM] | Compound |
| --- | --- | --- | --- | --- | --- | --- |
| 79 | 5 | 83 | 1 | 0.034 | 4.32 | O=C(Cn1c(-c2ccccc2)ccc1-c1ccccc1)NO [Example 9, 2-(2,5-Diphenylpyrrol-1-yl)ethanehydroxamic acid] |
| 79 | 66 | 98 | 74 | 0.032 | 13.7 | O=C(CCc1c(-c2ccccc2)noc1-c1ccccc1)NO [Example 4, 3-(3,5-Diphenylisoxazol-4-yl)propanehydroxamic acid] |
| 93 | 68 | 97 | 77 | 0.108 | 8.07 | O=C(CCc1c(-c2ccccc2)n[nH]c1-c1ccccc1)NO [Example 3, 3-(3,5-Diphenyl-1H-pyrazol-4-yl)propanehydroxamic acid] |
| 93 | 76 | 95 | 70 | 0.069 | 8.71 | O=C(Cn1c(-c2ccccc2)nnc1-c1ccccc1)NO [Example 7, 2-(3,5-Diphenyl-1,2,4-triazol-4-yl)ethanehydroxamic acid] |
| 75 | 67 | 104 | 61 | 0.004 | 0.204 | O=C(Cc1c(-c2ccccc2)n[nH]c1-c1ccccc1)NO [Example 1, 2-(3,5-Diphenyl-1H-pyrazol-4-yl)ethanehydroxamic acid] |
| 86 | 22 | 85 | 24 |  |  | O=C(Cc1c(-c2ccccc2)nn(Cc2ccc(C(=O)O)cc2)c1-c1ccccc1)NO [Example 40, 4-[[4-(2-(Hydroxyamino)-2-oxo-ethyl]-3,5-diphenyl-1H-pyrazol-1-yl]methyl]benzoic acid] |
| 88 | 28 | 66 | 17 |  |  | O=C(Cc1c(-c2cc(F)c(O)c(Cl)c2)n[nH]c1-c1ccccc1)NO [Example 54, 2-[3-(3-Chloro-5-fluoro-4-hydroxy-phenyl)-5-phenyl-1H-pyrazol-4-yl]ethanehydroxamic acid] |
| 83 | 34 | 89 | 34 |  |  | O=C(Cc1c(-c2ccccc2)nn(Cc2cccc(C(=O)O)c2)c1-c1ccccc1)NO [Example 41, 3-[[4-[2-(Hydroxyamino)-2-oxo-ethyl]-3,5-diphenyl-1H-pyrazol-1-yl]methyl]benzoic acid] |

The next lines start with the molecule.

| Compound | remaining activity at 10 µM [1] [%] | remaining activity at 200 µM [1] [%] | remaining activity at 10 µM [2] [%] | remaining activity at 200 µM [2] [%] | IC50 [3] [µM] | IC50 [4] [µM] |
| --- | --- | --- | --- | --- | --- | --- |
| COc1cccc(-c2n[nH]c(-c3ccccc3)c2CC(=O)NO)c1 [Example 47, 2-[3-(3-Methoxyphenyl)-5-phenyl-1H-pyrazol-4-yl]ethanehydroxamic acid] | 85 | 28 | 78 | 17 |  |  |
| O=C(Cc1c(-c2ccccc2)nn(Cc2ccc3c(c2)OCO3)c1-c1ccccc1)NO [Example 43, 2-[1-(1,3-Benzodioxol-5-ylmethyl)-3,5-diphenyl-1H-pyrazol-4-yl]ethanehydroxamic acid] | 78 | 51 | 77 | 60 |  |  |
| COc1ccc(-c2n[nH]c(-c3ccccc3)c2CC(=O)NO)cc1OC [Example 49, 2-[3-(3,4-Dimethoxyphenyl)-5-phenyl-1H-pyrazol-4-yl]ethanehydroxamic acid] | 101 | 18 | 83 | 26 |  |  |
| O=C(Cc1c(-c2ccccc2)nn(Cc2ccc(Cl)c(O)c2F)c1-c1ccccc1)NO [Example 42, 2-[1-(4-Chloro-2-fluoro-3-hydroxybenzyl)-3,5-diphenyl-1H-pyrazol-4-yl]ethanehydroxamic acid] | 84 | 9 | 69 | 18 |  |  |
| O=C(Cc1c(-c2cccc(C(=O)O)c2)n[nH]c1-c1ccc(Cl)c(O)c1F)NO [Example 63, 3-[5-(4-Chloro-2-fluoro-3-hydroxy-phenyl)-4-[2-(hydroxyamino)-2-oxo-ethyl]-1H-pyrazol-3-yl]benzoic acid] | 105 | 73 | 95 | 81 |  |  |
| O=C(Cc1c(-c2ccc3c(c2)OCO3)n[nH]c1-c1ccccc1)NO [Example 50, 2-[3-(1,3-Benzodioxol-5-yl)-5-phenyl-1H-pyrazol-4-yl]ethanehydroxamic acid] | 71 | 10 | 41 | 8 |  |  |
| O=C(Cn1c(-c2ccccc2)cc2ccccc21)NO [Example 25, 2-(2-Phenylindol-1-yl)ethanehydroxamic acid] | 77 | 54 | 85 | 41 | 0.072 | 1.14 |
| O=C(Cc1c(-c2ccccc2)noc1-c1ccccc1)NO [Example 2, 2-(3,5-Diphenylisoxazol-4-yl)ethanehydroxamic acid] | 80 | 31 | 87 | 34 | 0.007 | 0.831 |
